Values joined by “and” are separate entries in the source; they are usually repeats but may differ in a detail not shown here. Identical values can stand only once. Like-named read-outs stand apart in the source and are kept apart here.
Columns and labels:
[1] = tested on: MOLP-8 human multiple myeloma cell line; assay: MOLP8 Caspase-Glo 3/7 luminescent assay; assay type: cell-based; conditions: 2 hours incubation; averaged values over all runs on all batches
Source text: (§1) MCL-1 is a regulator of apoptosis and is highly over-expressed in tumor cells that escape cell death. The assay evaluates the cellular potency of small-molecule compounds targeting regulators of the apoptosis pathway, primarily MCL-1, Bfl-1, Bcl-2, and other proteins of the Bcl-2 family. Protein-protein inhibitors disrupting the interaction of anti-apoptotic regulators with BH3-domain proteins initiate apoptosis.
The Caspase-Glo® 3/7 Assay is a luminescent assay that measures caspase-3 and -7 activities in purified enzyme preparations or cultures of adherent or suspension cells. The assay provides a proluminescent caspase-3/7 substrate, which contains the tetrapeptide sequence DEVD. This substrate is cleaved to release aminoluciferin, a substrate of luciferase used in the production of light. Addition of the single Caspase-Glo® 3/7 Reagent in an “add-mix-measure” format results in cell lysis, followed by caspase cleavage of the substrate and generation of a “glow-type” luminescent signal.
This assay uses the MOLP-8 human multiple myeloma cell line, which is sensitive to MCL-1 inhibition.
Cell cultures were maintained between 0.2 and 2.0×10^6 cells/mL. The cells were harvested by collection in 50 mL conical tubes. The cells were then pelleted at 500 g for 5 mins before removing supernatant and resuspension in fresh pre-warmed culture medium. The cells were counted and diluted as needed.
The assay reagent was prepared by transferring the buffer solution to the substrate vial and mixing. The solution may be stored for up to 1 week at 4° C. with negligible loss of signal.
Compounds were delivered in assay-ready plates (Proxiplate) and stored at −20° C.
Assays always include 1 reference compound plate containing reference compounds. The plates were spotted with 40 nL of compounds (0.5% DMSO final in cells; serial dilution; 30 μM highest conc. ⅓ dilution, 10 doses, duplicates). The compounds were used at room temperature and 4 μL of pre-warmed media was added to all wells except column 2 and 23. The negative control was prepared by adding 1% DMSO in media. The positive control was prepared by adding the appropriate positive control compound in final concentration of 60 μM in media. The plate was prepared by adding 4 μL negative control to column 23, 4 μL positive control to column 2 and 4 μL cell suspension to all wells in the plate. The plate with cells was then incubated at 37° C. for 2 hours. The assay signal reagent is the Caspase-Glo solution described above, and 8 μL was added to all wells. The plates were then sealed and measured after 30 minutes.
The activity of a test compound was calculated as percent change in apoptosis induction as follows:
LC=median of the Low Control values • =Central Reference in Screener • =DMSO • =0% ΠC=Median of the High Control values • =Scale Reference in Screener • =30 pM of positive control • =100% apoptosis induction
% Effect (AC50)=100−(sample−LC)/(HC−LC)*100
% Control=(sample/HC)*100
% Control min=(sample−LC)/(HC−LC)*100

MOLP8 cells = assay: MOLP8 CellEvent Caspase-3/7 Green apoptosis activation assay (IncuCyte live-cell kinetic readout); assay type: cell-based; conditions: each independent run listed
Method: as §1
Activation of the apoptotic pathway was measured using the CellEvent™ Caspase-3/7 Green ReadyProbes™ Reagent (Thermo Fisher C10423, C10723). This assay produces a green fluorescent stain in cells that enter the apoptosis pathway. CellEvent® Caspase-3/7 Green reagent is a four amino acid peptide (DEVD) conjugated to a nucleic acid-binding dye that is non-fluorescent when not bound to DNA. The CellEvent® Caspase-3/7 Green reagent is intrinsically non-fluorescent, as the DEVD peptide inhibits binding of the dye to DNA. Upon activation of caspase-3/7 in apoptotic cells, the DEVD peptide is cleaved and the free dye can bind DNA, generating a bright green fluorescence. The activation of Caspase-3 and Caspase-7 is downstream of inhibition of MCL-1 or other apoptosis inhibiting proteins in cell lines that are dependent on them.
The live-cell readout on the IncuCyte permits tracking over time of the Caspase activation. […] The IncuCyte readout also allows one to normalize for cell number, as the suspension cells are hard to distribute evenly.
Signals were measured every 2 h for a duration of 22 h. The ratio of the Caspase mask to the Confluence mask, per image, as raw data, was calculated and the kinetic trace for every well was exported to Genedata Screener for analysis.
In Genedata Screener values for 6 h, 12 h, and 22 h from the kinetic traces were extracted. The values were normalized against negative controls (untreated cells). A standard dose-response analysis was performed on the normalized data.
The following data was reported at each of the following three aforementioned time points: (a) The dose-response curve, (b) The qAC50 and qAC50 Mode, and (c) Max Activity.
Cells were maintained in culture medium containing 10% Heat Inactivated (HI) FBS, 2 mM L-Glutamine and 50 µg/mL Gentamycin phenol red free RPMI-1640. Cells were split at 0.4 million/mL twice a week.
On Day 1, plates containing individual wells with test compounds at 10 mM concentration, 150 nL per well. The final concentrations range from […] compound (and no compound control) and compounds were thawed at room temperature for 1 hour. 25 μl of prewarmed medium was added into each well by multidrop (column 1, 3-22, 24), followed by addition of DMSO control (0.6% DMSO) in column 2. The plate was sealed using Breathe-Easy® sealing membrane and shaken for 30 min at room temperature to dissolve the test compound(s) in medium. The plate was then kept in the incubator for 1 hour at 37° C., 5% CO2.
MOLP8 cells in medium at […] (20000/50 μl final in assay) were prepared with CellEvent™ Caspase-3/7 Green Detection Reagent at 4 μM (2 μM final in assay). Once prepared, the cells were added to the test compound plate in an amount of 20000 and the plate was immediately placed in the IncuCyte and imaging started using following settings: 10× objective, 2 s exposure time in green channel, interval of 2 h, acquisition stopped after 22 h.
For analysis in IncuCyte, a Basic Analysis protocol was defined to calculate the “confluence” and “caspase” areas from the “Phase” and “green” images, respectively, as follows: (a) Confluence: Segmentation Adjustment 1, Hole Fill 0, Adjust Size −2, No filters (b) Caspase: Top-Hat segmentation, Radius 10, Threshold 0.3 GCU, Edge Split On with sensitivity 0, Hole Fill 0, Adjust Size 1, and filter on a minimum Area of 20 μm^2. The analyzer is trained on a sufficient number of positive and negative control wells, as well as compound treated wells, verifying that the “confluence” layer detects both live and dead (condensed) cells. […]

[2] = 6 h, read-out: MOLP8 Caspase 3/7 AC50 at 6 h
[3] = 12 h, read-out: MOLP8 Caspase 3/7 AC50 at 12 h
[4] = 22 h, read-out: MOLP8 Caspase 3/7 AC50 at 22 h

Row | Compound | AC50 [1] | AC50 (MOLP8 cells; [2]) | AC50 (MOLP8 cells; [3]) | AC50 (MOLP8 cells; [4])
1 | Cc1c(C(=O)O)n2c3ccc(Cl)c(c13)-c1c(nn(C)c1C)CSCc1cc(n(C)n1)CSc1cc(c3ccccc3c1)OCCC2 (single isomer, unassigned) [Compound 1, 1^5-chloro-1^3,2^1,2^5,6^1-tetramethyl-1^1H,2^1H,6^1H-10-oxa-4,8-dithia-1(4,1)-indola-2(4,3),6(3,5)-dipyrazola-9(3,1)-naphthalenacyclotridecaphane-1^2-carboxylic acid] | 50 nM | 178 nM and 129 nM | 141 nM and 182 nM | 145 nM and 170 nM
2 | Cc1c(C(=O)O)n2c3ccc(Cl)c(c13)-c1c(nn(C)c1C)CSCc1cc(n(C)n1)CSc1cc(c3ccccc3c1)OCCC2 (single isomer, unassigned) [Compound 2, 1^5-chloro-1^3,2^1,2^5,6^1-tetramethyl-1′H,2′H,6H-10-oxa-4,8-dithia-1(4,1)-indola-2(4,3),6(3,5)-dipyrazola-9(3,1)-naphthalenacyclotridecaphane-1^2-carboxylic acid] | 10300 nM | 4570 nM and 4790 nM | 4470 nM and 4680 nM | 4270 nM and 4470 nM
